Calls of active or inactive are those of the source. The rule behind the calls is not given here.
Assays:
MGC-803 [1] = assay: Induction of apoptosis in human MGC-803 cells assessed as reduction of mitochondrial membrane potential at 7.5 uM measured after 24 hrs by JC-1 staining based Flowcytometry assay (reference value: 3.8%); type: functional; parameters: scale not given: the % may be the effect or the level left
HGC-27 [2] = assay: Induction of apoptosis in human HGC-27 cells assessed as early apoptotic cells at 9 uM measured after 24 hrs by AnnexinV/FITC staining based flow cytometry method (reference value: 0.7%); type: functional
HGC-27 [3] = assay: Induction of apoptosis in human HGC-27 cells assessed as upregulation of Bak at 3 to 9 uM measured after 24 hrs by Western blot assay; type: functional, cell-based; conditions: dose 3-9 µM
[4] = target: T1, NEDD8-activating enzyme E1 regulatory subunit (Homo sapiens) (UniProt Q13564); assay: Inhibition of NAE-mediated neddylation in human MGC-803 cells assessed as cullin4B-Nedd8 adduct formation at 2.5 to 7.5 uM measured after 24 hrs by western blot assay; type: cell-based; conditions: dose 2.5-7.5 µM
T1 sequence (whole entry): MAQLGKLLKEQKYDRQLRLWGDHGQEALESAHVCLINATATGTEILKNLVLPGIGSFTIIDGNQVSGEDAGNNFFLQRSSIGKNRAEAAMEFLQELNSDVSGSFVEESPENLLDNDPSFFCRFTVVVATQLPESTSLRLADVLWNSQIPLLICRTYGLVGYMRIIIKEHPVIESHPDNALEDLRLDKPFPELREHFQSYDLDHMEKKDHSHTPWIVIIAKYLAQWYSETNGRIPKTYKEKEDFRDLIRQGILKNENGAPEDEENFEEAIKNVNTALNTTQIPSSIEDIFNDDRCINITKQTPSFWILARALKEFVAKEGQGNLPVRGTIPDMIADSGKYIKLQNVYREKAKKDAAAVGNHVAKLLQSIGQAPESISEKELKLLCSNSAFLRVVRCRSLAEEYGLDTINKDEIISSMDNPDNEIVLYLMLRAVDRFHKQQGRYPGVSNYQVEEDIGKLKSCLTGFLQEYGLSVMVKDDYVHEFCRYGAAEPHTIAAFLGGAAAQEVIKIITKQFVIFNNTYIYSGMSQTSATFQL

MGC-803 [5] = assay: Induction of apoptosis in human MGC-803 cells assessed as late apoptotic cells at 5 uM measured after 24 hrs by AnnexinV/FITC staining based flow cytometry method (reference value: 2%); type: functional
A549 = assay: Antiproliferative activity against human A549 cells assessed as inhibition of cell proliferation measured after 72 hrs by MTT assay; type: functional, cell-based; conditions: A549, 72 h
MCF7 = assay: Antiproliferative activity against human MCF7 cells assessed as inhibition of cell proliferation measured after 72 hrs by MTT assay; type: functional, cell-based; conditions: MCF7, 72 h
MGC-803 [6] = assay: Induction of apoptosis in human MGC-803 cells assessed as early apoptotic cells at 2.5 uM measured after 48 hrs by AnnexinV/FITC staining based flow cytometry method (reference value: 1.5%); type: functional
[7] = target: T1, NEDD8-activating enzyme E1 regulatory subunit (Homo sapiens); assay: Inhibition of NAE-mediated neddylation in human MGC-803 cells assessed as cullin5-Nedd8 adduct formation at 2.5 to 7.5 uM measured after 24 hrs by western blot assay; type: cell-based; conditions: dose 2.5-7.5 µM
MGC-803 [8] = assay: Cell cycle arrest in human MGC-803 cells assessed as accumulation of cells at S phase at 5 uM measured after 24 hrs by Flowcytometry assay (reference value: 36.51%); type: functional
HGC-27 [9] = assay: Induction of apoptosis in human HGC-27 cells assessed as necrotic cells at 6 uM measured after 48 hrs by AnnexinV/FITC staining based flow cytometry method (reference value: 0.1%); type: functional
MGC-803 [10] = assay: Induction of apoptosis in human MGC-803 cells assessed as early apoptotic cells at 5 uM measured after 24 hrs by AnnexinV/FITC staining based flow cytometry method (reference value: 1.3%); type: functional
MGC-803 [11] = assay: Cell cycle arrest in human MGC-803 cells assessed as accumulation of cells at G0/G1 phase at 5 uM measured after 24 hrs by Flowcytometry assay (reference value: 46.01%); type: functional
MGC-803 [12] = assay: Induction of apoptosis in human MGC-803 cells assessed as up-regulation of Nrf2 expression at 2.5 to 7.5 uM measured after 24 hrs by Western blot assay; type: functional, cell-based; conditions: dose 2.5-7.5 µM
[13] = target: T1, NEDD8-activating enzyme E1 regulatory subunit (Homo sapiens); assay: Inhibition of NAE-mediated neddylation in human MGC-803 cells assessed as cullin4A-Nedd8 adduct formation at 2.5 to 7.5 uM measured after 24 hrs by western blot assay; type: cell-based; conditions: dose 2.5-7.5 µM
HGC-27 [14] = assay: Induction of apoptosis in human HGC-27 cells assessed as viable cells at 3 uM measured after 24 hrs by AnnexinV/FITC staining based flow cytometry method (reference value: 95.7%); type: functional; conditions: read-out: Activity
MGC-803 [15] = assay: Induction of apoptosis in human MGC-803 cells assessed as upregulation of Bak at 2.5 to 7.5 uM measured after 24 hrs by Western blot assay; type: functional, cell-based; conditions: dose 2.5-7.5 µM
MGC-803 [16] = assay: Induction of apoptosis in human MGC-803 cells assessed as upregulation of Bax at 2.5 to 7.5 uM measured after 24 hrs by Western blot assay; type: functional, cell-based; conditions: dose 2.5-7.5 µM
HGC-27 [17] = assay: Induction of apoptosis in human HGC-27 cells assessed as late apoptotic cells at 3 uM measured after 48 hrs by AnnexinV/FITC staining based flow cytometry method (reference value: 1%); type: functional
HGC-27 [18] = assay: Induction of apoptosis in human HGC-27 cells assessed as viable cells at 6 uM measured after 24 hrs by AnnexinV/FITC staining based flow cytometry method (reference value: 95.7%); type: functional; conditions: read-out: Activity
HGC-27 [19] = assay: Inhibition of cell migration in human HGC-27 cells at 5 uM measured after 48 hrs by wound healing assay based inverted microscopic analysis; type: functional
MGC-803 [20] = assay: Induction of apoptosis in human MGC-803 cells assessed as down-regulation of Nrf2 expression in nucleus at 2.5 to 7.5 uM measured after 24 hrs by Western blot assay; type: functional, cell-based; conditions: dose 2.5-7.5 µM
HGC-27 [21] = assay: Antiproliferative activity against human HGC-27 cells assessed as inhibition of cell proliferation measured after 72 hrs by MTT assay; type: functional, cell-based; conditions: HGC-27, 72 h
MGC-803 [22] = assay: Cell cycle arrest in human MGC-803 cells assessed as accumulation of cells at G2/M phase at 5 uM measured after 24 hrs by Flowcytometry assay (reference value: 13.71%); type: functional
MGC-803 [23] = assay: Cell cycle arrest in human MGC-803 cells assessed as accumulation of cells at S phase at 7.5 uM measured after 24 hrs by Flowcytometry assay (reference value: 36.51%); type: functional
MGC-803 [24] = assay: Inhibition of cell migration in human MGC-803 cells at 1.25 to 5 uM measured after 24 to 48 hrs by wound healing assay based inverted microscopic analysis; type: functional; conditions: dose 1.25-5 µM, time 24-48 hrs
MGC-803 [25] = assay: Induction of apoptosis in human MGC-803 cells assessed as late apoptotic cells at 2.5 uM measured after 48 hrs by AnnexinV/FITC staining based flow cytometry method (reference value: 0.9%); type: functional
HGC-27 [26] = assay: Induction of apoptosis in human HGC-27 cells assessed as upregulation of Bax at 3 to 9 uM measured after 24 hrs by Western blot assay; type: functional, cell-based; conditions: dose 3-9 µM
HGC-27 [27] = assay: Induction of apoptosis in human HGC-27 cells assessed as ROS levels at 3 uM measured after 24 hrs by DCFH-DA staining based flow cytometry assay (reference value: 6.8%); type: functional

- inhibition [4]: inactive
- IC50 (A549): 3.88 µM
- IC50 (MCF7): 3.74 µM
- inhibition [7]: Active
- inhibition [13]: inactive
SMILES: CCCCCc1ccc(NC(=O)C2CCN(C/C=C/c3ccccc3)CC2)cc1
- Activity (MGC-803 [1]): 70%
- Activity (HGC-27 [2]): 2.3%
- Activity (HGC-27 [3]): Dose-Dependent Effect
- Activity (MGC-803 [5]): 10.9%
- Activity (MGC-803 [6]): 3%
- Activity (MGC-803 [8]): 33.81%
- Activity (HGC-27 [9]): 0.7%
- Activity (MGC-803 [10]): 0.8%
- Activity (MGC-803 [11]): 44.87%
- Activity (MGC-803 [12]): Active
- viability at 3 µM (HGC-27 [14]): 87.5%
- Activity (MGC-803 [15]): Dose-Dependent Effect
- Activity (MGC-803 [16]): Dose-Dependent Effect
- Activity (HGC-27 [17]): 7%
- viability at 6 µM (HGC-27 [18]): 25.4%
- inhibition at 5 µM (HGC-27 [19]): 60%
- Activity (MGC-803 [20]): Active
- IC50 (HGC-27 [21]): 3.17 µM
- Activity (MGC-803 [22]): 19.31%
- Activity (MGC-803 [23]): 33.6%
- Activity (MGC-803 [24]): Dose-Dependent Effect
- Activity (MGC-803 [25]): 43.5%
- Activity (HGC-27 [26]): Dose-Dependent Effect
- Activity (HGC-27 [27]): 11.4%
